Measured values taken from patent US20240400555A1 (Initial Therapeutics, Inc., priority 2023, published 2024).
Like-named read-outs stand apart in the source and are kept apart here.

Test system: MV-4-11 cells
Test: Cell Viability Assay in MV-4-11 Cells
Assay type: cell-based
Details: Homo sapiens, MV4-11, 72 h
Method in brief: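 MV-4-11 cells at 7,000/well in IMDM with 10% FBS, exposed to compound for 72 h. Viability by CellTiter-Glo luminescence, normalized to DMSO as 100%, fitted with a four-parameter curve.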

[1] = MV-4-11 cells, 72 h, Cell-Titer Glo, read-out: IC50

Structure (SMILES)	IC50 [1] [nM]	IC50 [nM]
Cc1cc(Cl)cc2ccnc(N(C(=O)c3ccc(-c4cn(C)nn4)cc3Cl)[C@@H]3CCCNC3)c12 [Example 816, (R)-2-chloro-N-(6-chloro-8-methylisoquinolin-1-yl)-4-(1-methyl-1H-1,2,3-triazol-4-yl)-N-(piperidin-3-yl)benzamide]	140	–
Cc1nnc(-c2ccc(C(=O)N(c3nccc4sc(C#CCCC(N)=O)cc34)[C@@H]3CCCNC3)c(F)c2)s1 [Example 817, N-[2-(5-amino-5-oxo-pent-1-ynyl)thieno[3,2-c]pyridin-4-yl]-2-fluoro-4-(5-methyl-1,3,4-thiadiazol-2-yl)-N-[(3R)-3-piperidyl]benzamide]	3600	–
Cc1nnc(-c2ccc(C(=O)N(c3nccc4sc(C#CCCO)cc34)[C@@H]3CCCNC3)c(F)c2)s1 [Example 818, (R)-2-fluoro-N-(2-(4-hydroxybut-1-yn-1-yl)thieno[3,2-c]pyridin-4-yl)-4-(5-methyl-1,3,4-thiadiazol-2-yl)-N-(piperidin-3-yl)benzamide]	1300	–
Cc1c(-c2ccc(C(=O)N(c3nccc4sc(-c5ccc(C(N)=O)cc5)cc34)[C@@H]3CCCNC3)c(F)c2)nnn1C [Example 819, N-[2-(4-carbamoylphenyl)thieno[3,2-c]yridine-4-yl]-4-(1,5-dimethyltriazol-4-yl)-2-fluoro-N-[(3R)-3-piperidyl]benzamide]	1000	–
Cc1sc2ccnc(N(C(=O)c3ccc(-n4nnc5cccnc54)cc3F)[C@@H]3CCCNC3)c2c1C [Example 820, (R)-4-(3H-[1,2,3]triazolo[4,5-b]pyridin-3-yl)-N-(2,3-dimethylthieno[3,2-c]pyridin-4-yl)-2-fluoro-N-(piperidin-3-yl)benzamide]	220	–
CCn1cc(-c2ccc(C(=O)N(c3nccc4cccc(C)c34)[C@@H]3CCCNC3)c(F)c2)nn1 [Example 821, (R)-4-(1-ethyl-1H-1,2,3-triazol-4-yl)-2-fluoro-N-(8-methylisoquinolin-1-yl)-N-(piperidin-3-yl)benzamide]	67	–
Cc1cccc2ccnc(N(C(=O)c3ccc(-c4cn(C)nn4)cc3Cl)[C@@H]3CCCNC3)c12 [Example 822, (R)-2-chloro-4-(1-methyl-1H-1,2,3-triazol-4-yl)-N-(8-methylisoquinolin-1-yl)-N-(piperidin-3-yl)benzamide]	390	–
Cc1cccc2ccnc(N(C(=O)c3ccc(Nc4ncc5ccsc5n4)cc3F)[C@@H]3CCCNC3)c12 [Example 823, (R)-2-fluoro-N-(8-methylisoquinolin-1-yl)-N-(piperidin-3-yl)-4-(thieno[2,3-d]pyrimidin-2-ylamino)benzamide]	130	–
Cc1cccc2ccnc(N(C(=O)c3ccc(Nc4ncc5ccccc5n4)cc3F)[C@@H]3CCCNC3)c12 [Example 824, (R)-2-fluoro-N-(8-methylisoquinolin-1-yl)-N-(piperidin-3-yl)-4-(quinazolin-2-ylamino)benzamide]	130	–
NC(=O)c1ccc(-c2cc3c(N(C(=O)c4ccc(-c5cnn6c5CCCC6)cc4F)[C@@H]4CCCNC4)nccc3s2)cc1 [Example 825, N-[2-(4-carbamoylphenyl)thieno[3,2-c]pyridin-4-yl]-2-fluoro-N-[(3R)-3-piperidyl]-4-(4,5,6,7-tetrahydropyrazolo[1,5-a]pyridin-3-yl)benzamide]	1000	–
NC(=O)c1ccc(-c2cc3c(N(C(=O)c4ccc(-n5cnc6ccccc65)cc4F)[C@@H]4CCCNC4)nccc3s2)cc1 [Example 826, 4-(benzimidazol-1-yl)-N-[2-(4-carbamoylphenyl)thieno[3,2-c]pyridin-4-yl]-2-fluoro-N-[(3R)-3-piperidyl]benzamide]	4400	–
Cc1nnc(-c2ccc(C(=O)N(c3nccc4sc(-c5ccc(C(N)=O)cc5)cc34)[C@@H]3CCCNC3)c(F)c2)s1 [Example 827, N-[2-(4-carbamoylphenyl)thieno[3,2-c]pyridin-4-yl]-2-fluoro-4-(5-methyl-1,3,4-thiadiazol-2-yl)-N-[(3R)-3-piperidyl]benzamide]	910	–
Cn1cc(-c2ccc(C(=O)N(c3nccc4cc(Cc5cccnc5)ccc34)[C@@H]3CCCNC3)c(F)c2)nn1 [Example 828, (R)-2-fluoro-4-(1-methyl-1H-1,2,3-triazol-4-yl)-N-(piperidin-3-yl)-N-(6-(pyridin-3-ylmethyl)isoquinolin-1-yl)benzamide]	1000	–
Cc1cc(F)cc2ccnc(N(C(=O)c3ccc(-c4nnn(C)c4C)cc3F)[C@@H]3CCCNC3)c12 [Example 829, (R)-4-(1,5-dimethyl-1H-1,2,3-triazol-4-yl)-2-fluoro-N-(6-fluoro-8-methylisoquinolin-1-yl)-N-(piperidin-3-yl)benzamide]	130	–
Cc1cccc2ccnc(N(C(=O)c3ccc(-c4nnn(C)c4C)cc3F)[C@@H]3CCCNC3)c12 [Example 830, (R)-4-(1,5-dimethyl-1H-1,2,3-triazol-4-yl)-2-fluoro-N-(8-methylisoquinolin-1-yl)-N-(piperidin-3-yl)benzamide]	210	–
Cc1sc2ccnc(N(C(=O)c3ccc(-c4cn(C)nn4)cc3F)[C@@H]3CCCNC3)c2c1C [Example 831, (R)—N-(2,3-dimethylthieno[3,2-c]pyridin-4-yl)-2-fluoro-4-(1-methyl-1H-1,2,3-triazol-4-yl)-N-(piperidin-3-yl)benzamide]	440	–

Structure (SMILES)	IC50 [1] [nM]	IC50 [nM]
CCc1nnc(-c2ccc(C(=O)N(c3nccc4cc(F)cc(C)c34)[C@@H]3CCCNC3)c(F)c2)s1 [Example 832, (R)-4-(5-ethyl-1,3,4-thiadiazol-2-yl)-2-fluoro-N-(6-fluoro-8-methylisoquinolin-1-yl)-N-(piperidin-3-yl)benzamide]	120	–
Cc1nnc(-c2ccc(C(=O)N(c3nccc4cc(F)cc(C)c34)[C@@H]3CCCNC3)c(F)c2)s1 [Example 833, (R)-2-fluoro-N-(6-fluoro-8-methylisoquinolin-1-yl)-4-(5-methyl-1,3,4-thiadiazol-2-yl)-N-(piperidin-3-yl)benzamide]	120	–
Cn1cc(-c2ccc(C(=O)N(c3nccc4cc(-c5ccc(CN)cc5)ccc34)[C@@H]3CCCNC3)c(F)c2)nn1 [Example 834, (R)—N-(6-(4-(aminomethyl)phenyl)isoquinolin-1-yl)-2-fluoro-4-(1-methyl-1H-1,2,3-triazol-4-yl)-N-(piperidin-3-yl)benzamide]	140	–
Cc1cccc2ccnc(N(C(=O)c3ccc(-c4nnc(C5CC5)s4)cc3F)[C@@H]3CCCNC3)c12 [Example 836, (R)-4-(5-cyclopropyl-1,3,4-thiadiazol-2-yl)-2-fluoro-N-(8-methylisoquinolin-1-yl)-N-(piperidin-3-yl)benzamide]	89	–
CCc1nnc(-c2ccc(C(=O)N(c3nccc4cccc(C)c34)[C@@H]3CCCNC3)c(F)c2)s1 [Example 837, (R)-4-(5-ethyl-1,3,4-thiadiazol-2-yl)-2-fluoro-N-(8-methylisoquinolin-1-yl)-N-(piperidin-3-yl)benzamide]	34	–
O=C(c1ccc(-c2cnn3c2CCCC3)cc1F)N(c1nccc2sc(C#CCCCO)cc12)[C@@H]1CCCNC1 [Example 839, 2-fluoro-N-[2-(5-hydroxypent-1-ynyl)thieno[3,2-c]pyridin-4-yl]-N-[(3R)-3-piperidyl]-4-(4,5,6,7-tetrahydropyrazolo[1,5-a]pyridin-3-yl)benzamide]	1500	–
Cn1cc(-c2ccc(C(=O)N(c3nccc4sc(-c5ccc(C(N)=O)cc5)cc34)[C@@H]3CCCNC3)c(F)c2)nn1 [Example 840, N-[2-(4-carbamoylphenyl)thieno[3,2-c]pyridin-4-yl]-2-fluoro-4-(1-methyltriazol-4-yl)-N-[(3R)-3-piperidyl] benzamide]	1200	–
Cc1csc2ccnc(N(C(=O)c3ccc(-c4cn(C)nn4)cc3F)[C@@H]3CCCNC3)c12 [Example 841, (R)-2-fluoro-4-(1-methyl-1H-1,2,3-triazol-4-yl)-N-(3-methylthieno[3,2-c]pyridin-4-yl)-N-(piperidin-3-yl)benzamide]	75	–
C=C(C)c1csc2ccnc(N(C(=O)c3ccc(-c4cn(C)nn4)cc3F)[C@@H]3CCCNC3)c12 [Example 842, (R)-2-fluoro-4-(1-methyl-1H-1,2,3-triazol-4-yl)-N-(piperidin-3-yl)-N-(3-(prop-1-en-2-yl)thieno[3,2-c]pyridin-4-yl)benzamide]	–	270
Cc1cccc2ccnc(N(C(=O)c3ccc(Nc4ccccn4)nc3)[C@@H]3CCCNC3)c12 [Example 843, (R)—N-(8-methylisoquinolin-1-yl)-N-(piperidin-3-yl)-6-(pyridin-2-ylamino)nicotinamide]	2200	–
O=C(c1ccc(-n2nnc3cccnc32)cc1F)N(c1nccc2sc(C#CCCCO)cc12)[C@@H]1CCCNC1 [Example 844, (R)-4-(3H-[1,2,3]triazolo[4,5-b]pyridin-3-yl)-2-fluoro-N-(2-(5-hydroxypent-1-yn-1-yl)thieno[3,2-c]pyridin-4-yl)-N-(piperidin-3-yl)benzamide]	600	–
Cc1cc(-c2cnn(C)c2)cc2ccnc(N(C(=O)c3ccc(-c4cn(C)nn4)cc3F)[C@@H]3CCCNC3)c12 [Example 845, 2-fluoro-N-[8-methyl-6-(1-methylpyrazol-4-yl)-1-isoquinolyl]-4-(1-methyltriazol-4-yl)-N-[(3R)-3-piperidyl]benzamide]	69	–
Cc1cccc2ccnc(N(C(=O)c3ccc(Nc4ncccn4)nc3)[C@@H]3CCCNC3)c12 [Example 846, (R)—N-(8-methylisoquinolin-1-yl)-N-(piperidin-3-yl)-6-(pyrimidin-2-ylamino)nicotinamide]	420	–
Cc1cccc2ccnc(N(C(=O)c3ccc(Nc4ncccn4)c(Cl)c3)[C@@H]3CCCNC3)c12 [Example 847, (R)-3-chloro-N-(8-methylisoquinolin-1-yl)-N-(piperidin-3-yl)-4-(pyrimidin-2-ylamino)benzamide]	2000	–
Cc1cccc2ccnc(N(C(=O)c3ccc(Nc4nccc(N)n4)cc3F)[C@@H]3CCCNC3)c12 [Example 848, (R)-4-((4-aminopyrimidin-2-yl)amino)-2-fluoro-N-(8-methylisoquinolin-1-yl)-N-(piperidin-3-yl)benzamide]	260	–
